Data on 20 molecules can be found in patent US9957271B2, “Substituted bicyclic aza-heterocycles and analogues as sirtuin modulators” (GlaxoSmithKline, LLC, priority 2012, dated 2018).

Some results are limits rather than exact numbers.

This test addresses T1, SIRT1 (Homo sapiens, UniProt Q96EB6).
T1 sequence (Q96EB6 1-747): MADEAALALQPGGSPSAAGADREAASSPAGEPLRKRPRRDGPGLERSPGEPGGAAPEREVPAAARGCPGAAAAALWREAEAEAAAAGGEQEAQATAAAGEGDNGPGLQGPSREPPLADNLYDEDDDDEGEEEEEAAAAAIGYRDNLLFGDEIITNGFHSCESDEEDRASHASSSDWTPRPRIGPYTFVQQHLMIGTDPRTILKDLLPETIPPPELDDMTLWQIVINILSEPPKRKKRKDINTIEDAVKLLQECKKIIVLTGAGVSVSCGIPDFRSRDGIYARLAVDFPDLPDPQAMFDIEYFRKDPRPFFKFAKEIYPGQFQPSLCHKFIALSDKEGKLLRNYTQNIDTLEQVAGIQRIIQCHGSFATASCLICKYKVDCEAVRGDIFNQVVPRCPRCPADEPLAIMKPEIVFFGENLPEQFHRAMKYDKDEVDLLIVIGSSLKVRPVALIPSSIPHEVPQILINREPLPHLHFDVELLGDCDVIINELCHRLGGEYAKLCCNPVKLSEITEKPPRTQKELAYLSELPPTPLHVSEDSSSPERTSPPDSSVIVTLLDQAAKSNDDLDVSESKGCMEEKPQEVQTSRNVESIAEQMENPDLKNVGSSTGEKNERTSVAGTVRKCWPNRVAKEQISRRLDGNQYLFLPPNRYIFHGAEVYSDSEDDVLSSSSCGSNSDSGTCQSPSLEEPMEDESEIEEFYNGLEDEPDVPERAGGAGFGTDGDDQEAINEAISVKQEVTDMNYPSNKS
Description: Trp mass spectrometry assay of SIRT1 activity. The format is biochemical. The conditions noted are these: Trp assay; for Trp EC1.5 (μM): concentration giving 150% activation of SIRT1; for Emax: percent maximum fold activation, read-out: Trp % Fold Act. An excerpt:
Mass spectrometry based assays were used to identify modulators of SIRT1 activity. The TAMRA based assay utilized a peptide having 20 amino acid residues as follows: Ac-EE-K(biotin)-[…](Ac)NleSTEG-K(5TMR)-EE-NH2 (SEQ ID NO: 1), wherein K(Ac) is an acetylated lysine residue and Nle is a norleucine. The peptide was labeled with the fluorophore 5TMR (excitation 540 nm/emission 580 nm) at the C-terminus. The sequence of the peptide substrate was based on p53 with several modifications. In addition, the methionine residue naturally present in the sequence was replaced with the norleucine because the methionine may be susceptible to oxidation during synthesis and purification. The Trp based assay utilized a peptide having an amino acid residues as follows: Ac-R-H-K-K(Ac)-W-NH2 (SEQ ID NO: 2).
The Trp mass spectrometry assay was conducted as follows. 0.5 μM peptide substrate and 120 μM βNAD^+ were incubated with 10 nM SIRT1 for 25 minutes at 25° C. in a reaction buffer (50 mM HEPES pH 7.5, […], 1 mM DTT, 0.05% BSA). The SIRT1 protein was obtained by cloning the SirT1 gene into a T7-promoter containing vector, which was then expressed in BL21(DE3) bacterial cells and purified as described in further detail below. Test compound was added at varying concentrations to this reaction mixture and the resulting reactions were monitored. After the 25 minute incubation with SIRT1, 10 μL of 10% formic acid was added to stop the reaction. The resulting reactions were sealed and frozen for later mass spec analysis. The relative SIRT1 activity was then determined by measuring the amount of O-acetyl-ADP-ribose (OAADPR) formed (or, alternatively, the amount of deacetylated Trp peptide generated) by the NAD-dependent sirtuin deacetylation reaction in the presence of varying concentrations of the test compound versus control reactions lacking the test compound. The degree to which the test agent activated deacetylation by SIRT1 was expressed as EC1.5 (i.e., the concentration of compound required to increase SIRT1 activity by 50% over the control lacking test compound), and Percent Maximum Activation (i.e., the maximum activity relative to control (100%) obtained for the test compound).
A control for inhibition of sirtuin activity was conducted by adding 1 μL of 500 mM nicotinamide as a negative control at the start of the reaction (e.g., permits determination of maximum sirtuin inhibition). A control for activation of sirtuin activity was conducted using 10 nM of sirtuin protein, with 1 μL of DMSO in place of compound, to determine the amount of deacetylation of the substrate at a given time point within the linear range of the assay. This time point was the same as that used for test compounds and, within the linear range, the endpoint represents a change in velocity.
For the above assay, SIRT1 protein was expressed and purified as follows. The SirT1 gene was cloned into a T7-promoter containing vector and transformed into BL21(DE3). The protein was expressed by induction with 1 mM IPTG as an N-terminal His-tag fusion protein at 18° C. overnight and harvested at 30,000×g. Cells were lysed with lysozyme in lysis buffer (50 mM Tris-HCl, 2 mM Tris[2-carboxyethyl]phosphine (TCEP), 10 μM ZnCl2, 200 mM NaCl) and further treated with sonication for […] for complete lysis. The protein was purified over a Ni-NTA column (Amersham) and fractions containing pure protein were pooled, concentrated and run over a sizing column (Sephadex S200 26/60 global). The peak containing soluble protein was collected and run on an Ion-exchange column (MonoQ). Gradient elution (200 mM-500 mM NaCl) yielded pure protein. This protein was concentrated and dialyzed against dialysis buffer (20 mM Tris-HCl, 2 mM TCEP) overnight. The protein was aliquoted and frozen at −80° C. until further use.

For the molecule `Cc1ccnc(NC(=O)c2c(C)nc3c(OC[C@H](O)CO)cc(-c4ccccc4C(F)(F)F)nn23)c1` [Compound 859], the “Trp EC1.5 (μM)” value is recorded as “A (EC1.5<1 μM)” and the Emax was at least 350%.
In the case of `Cc1cc(NC(=O)c2c(C)nc3c(OC[C@H](O)CO)cc(-c4ccccc4C(F)(F)F)nn23)cc(C)n1` [Compound 860], the “Trp EC1.5 (μM)” value was “A (EC1.5<1 μM)” and the Emax is at least 350%.
Take `Cc1cnc(NC(=O)c2c(C)nc3c(OC[C@H](O)CO)cc(-c4ccccc4C(F)(F)F)nn23)s1` [Compound 861]: the “Trp EC1.5 (μM)” value was “A (EC1.5<1 μM)” and the Emax is at least 350%.
For `Cc1nc2c(OC[C@H](O)CO)cc(-c3ccccc3C(F)(F)F)nn2c1C(=O)Nc1cccnc1` [Compound 862], in that order: “A (EC1.5<1 μM)” and at least 350%.
In the same order, the values of `Cc1nc2c(OC[C@H](O)CO)cc(-c3ccccc3C(F)(F)F)nn2c1C(=O)Nc1ccncc1` [Compound 863] are “A (EC1.5<1 μM)” and at least 350%.
`Cc1cncc(NC(=O)c2c(C)nc3c(OC[C@H](O)CO)cc(-c4ccccc4C(F)(F)F)nn23)c1` [Compound 864]: the “Trp EC1.5 (μM)” value was “A (EC1.5<1 μM)” and the Emax is at least 350%.
For `Cc1ccc(NC(=O)c2c(C)nc3c(OC[C@H](O)CO)cc(-c4ccccc4C(F)(F)F)nn23)cn1` [Compound 865], in that order: “A (EC1.5<1 μM)” and at least 350%.
For `CN(C)[C@H]1CCN(c2ccc3ncc(C(=O)Nc4ccccn4)n3n2)C1` [Compound 866], in that order: “B (EC1.5 1-25 μM)” and at least 350%.
`Cc1nc2ccc(N3CC[C@H](N(C)C)C3)nn2c1C(=O)Nc1ccccn1` [Compound 867]: the “Trp EC1.5 (μM)” value is “B (EC1.5 1-25 μM)” and the Emax is at least 350%.
For `CN(C)[C@H]1CCN(c2ccc3ncc(C(=O)Nc4cccnc4)n3n2)C1` [Compound 868], in that order: “B (EC1.5 1-25 μM)” and under 350%.
Turning to `CN(C)[C@H]1CCN(c2ccc3ncc(C(=O)Nc4ccncc4F)n3n2)C1` [Compound 869], the “Trp EC1.5 (μM)” value is “B (EC1.5 1-25 μM)” and the Emax is under 350%.
In the case of `Cc1nc2ccc(N3CC[C@H](N(C)C)C3)nn2c1C(=O)Nc1ccncc1F` [Compound 870], the “Trp EC1.5 (μM)” value is on record as “C (EC1.5>25 μM)” and the Emax was under 350%.
For `Cc1nc2ccc(N3CC[C@H](N(C)C)C3)nn2c1C(=O)Nc1cnccn1` [Compound 871], in that order: “B (EC1.5 1-25 μM)” and under 350%.
For `Cc1nc2ccc(N3CC[C@H](N(C)C)C3)nn2c1C(=O)Nc1ccc(F)cn1` [Compound 872], in that order: “C (EC1.5>25 μM)” and under 350%.
As to `CN(C)[C@H]1CCN(c2ccc3ncc(C(=O)Nc4cnccn4)n3n2)C1` [Compound 873], the “Trp EC1.5 (μM)” value is on record as “B (EC1.5 1-25 μM)” and the Emax is at least 350%.
On to `CN(C)[C@H]1CCN(c2ccc3ncc(C(=O)Nc4ccc(F)cn4)n3n2)C1` [Compound 874], for which the “Trp EC1.5 (μM)” value is “A (EC1.5<1 μM)” and the Emax was under 350%.
For `Cc1cc(NC(=O)c2cnc3ccc(-c4cccc(OC[C@H](O)CO)c4)nn23)ccn1` [Compound 875], in that order: “C (EC1.5>25 μM)” and under 350%.
In the same order, the values of `CN(C)c1cccc(NC(=O)c2cnc3ccc(-c4cccc(OC[C@H](O)CO)c4)nn23)n1` [Compound 876] are “A (EC1.5<1 μM)” and at least 350%.
For `Cc1nc2ccc(N3CC[C@H](N(C)C)C3)nn2c1C(=O)Nc1cccnc1` [Compound 877], in that order: “B (EC1.5 1-25 μM)” and under 350%.
With `CN(C)c1ccnc(NC(=O)c2cnc3ccc(-c4cccc(OC[C@H](O)CO)c4)nn23)c1` [Compound 878], the “Trp EC1.5 (μM)” value is recorded as “B (EC1.5 1-25 μM)” and the Emax is under 350%.
